# ChEMBL document CHEMBL5729064, “Benzofuran, benzothiophene, and indole analogs that inhibit the formation of tau oligomers and their method of use” (2022)
# pIC50: −log10 of the molar value.
# Biological target: Microtubule-associated protein tau (Homo sapiens, UniProt P10636)
# Test: AlphaLisa Assay: Tau target (equal mixture of each construct at 300 nM) was prepared in buffer (Tris-HCl pH 7.4) and was incubated in 96-well plates at room temperature for 4 hours with vehicle control (DMSO) and a dose range of a compound of the disclosure (0.098 uM-50 uM). AlphaLisa acceptor beads & donor beads with ligands to the epitope tags (Perkin Elmer) were diluted (final 20 ug/mL per bead) in bead buffer (25 mM HEPES pH 7.4, 100 mM NaCl, 0.1% Tween-20), added to the wells and incubated 1 hour at room temperature. The positive control (non-incubated target) & blank (no tau) were prepared and mixed with beads in bead buffer and the plate was read immediately using the EnVision plate reader (Perkin Elmer).
# Microtubule-associated protein tau, sequence (P10636 whole entry): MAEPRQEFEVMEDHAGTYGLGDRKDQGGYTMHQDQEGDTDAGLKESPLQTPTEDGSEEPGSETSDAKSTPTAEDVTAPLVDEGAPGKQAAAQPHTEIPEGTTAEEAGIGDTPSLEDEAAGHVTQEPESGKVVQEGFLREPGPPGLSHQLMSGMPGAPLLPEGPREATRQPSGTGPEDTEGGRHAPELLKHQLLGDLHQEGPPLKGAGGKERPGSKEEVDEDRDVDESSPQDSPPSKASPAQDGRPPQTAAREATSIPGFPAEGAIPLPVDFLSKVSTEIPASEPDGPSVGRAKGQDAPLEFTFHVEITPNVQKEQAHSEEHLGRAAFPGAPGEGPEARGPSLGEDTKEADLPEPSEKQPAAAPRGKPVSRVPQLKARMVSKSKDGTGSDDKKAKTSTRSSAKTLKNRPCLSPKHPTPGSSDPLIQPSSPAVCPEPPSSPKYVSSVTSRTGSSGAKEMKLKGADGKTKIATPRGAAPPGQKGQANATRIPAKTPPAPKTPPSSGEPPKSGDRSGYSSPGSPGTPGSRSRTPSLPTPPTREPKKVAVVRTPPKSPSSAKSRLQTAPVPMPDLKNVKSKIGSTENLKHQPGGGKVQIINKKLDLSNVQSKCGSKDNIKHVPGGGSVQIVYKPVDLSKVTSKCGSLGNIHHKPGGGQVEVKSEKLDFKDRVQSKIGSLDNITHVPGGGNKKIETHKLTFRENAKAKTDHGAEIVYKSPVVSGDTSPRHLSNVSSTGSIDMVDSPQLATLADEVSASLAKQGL
row,SMILES,pIC50
1,Cc1ccc(-c2c(CCc3nc4ccccc4[nH]3)oc3ccc(Br)cc23)o1,5.69
2,CC(=O)CCc1oc2ccc(-c3cccnc3)cc2c1-c1ccc(C)o1,5.12
3,Cc1ccc(C(C)(O)CCc2oc3ccc(Br)cc3c2-c2ccc(C)o2)cc1 (stereo unspecified),5.71
4,CC(=O)CCc1oc2cc(-c3cccnc3)ccc2c1-c1ccc(C)o1,5.40
5,CC(=O)CCc1oc2ccc(-c3ccncc3)cc2c1-c1ccc(C)o1,5.20
6,COc1cccc(-c2ccc3oc(CCC(C)=O)c(-c4ccc(C)o4)c3c2)c1,5.52

# These reach a higher pIC50. Values come first.
row,pIC50,SMILES
1,5.86,CC(=O)CCc1oc2ccc(-c3cccc(O)c3)cc2c1-c1ccc(C)o1
2,7.00,Cc1ccc(-c2c(CCC(C)(C)O)oc3ccc(Br)cc23)o1
3,5.90,COc1ccc(-c2ccc3oc(CCC(C)=O)c(-c4ccc(C)o4)c3c2)cn1
4,7.00,COc1cc(-c2ccc3oc(CCC(C)=O)c(-c4ccc(C)o4)c3c2)ccn1
5,5.80,COc1cc(-c2ccc3c(-c4ccc(C)o4)c(CCC(C)=O)oc3c2)ccn1
